Measured values as given in patent US11771725B2, “Lactobacillus having various functions, and use thereof” (University-Industry Cooperation Group of Kyung Hee …, priority 2015, dated 2023).

What was measured:
[1] = tested on: itching behavior induced by compound 48/80; test: Inhibition of itching induced by compound 48/80; type: in vivo; details: BALB/c mice, 1×10^9 CFU orally once a day for 3 days (control drugs 0.2 mg/mouse)
Procedure: At 1 hour after the last administration of the drug, the mice were allowed to stand in an observation cage (24 cm×22 cm×24 cm) for 10 minutes so as to be acclimated to the environment, and then the back portion of the head was shaved. […] Sigma, USA) by a 29-gauge needle. […] Scratching the injection area with the back foot was regarded as the itching behavior, and scratching other portions was not regarded.

[2] = tested on: vascular permeability induced by compound 48/80; test: Inhibition of vascular permeability induced by compound 48/80 (Evans blue); type: in vivo; details: BALB/c mice, 1×10^9 CFU orally once a day for 3 days (control drugs 0.2 mg/mouse)
Procedure: It is known that itching-induced areas have increased vascular permeability. […] According to the same method as the above-described experiment for measurement of itching inhibitory activity, the drug was administered to the same mice. Next, physiological saline was injected subcutaneously into the back portion of the head of the mice of the normal group, and an itching inducer (50 μg of compound 48/80; Sigma, USA) was injected subcutaneously into the back portion of the head of the mice of the other test group. Next, 0.2 ml of 1% Evans blue solution (Sigma, USA) was injected into the tail vein, and after 1 hour, the mice were euthanized. The skin of the subcutaneously injected area was dissected, and incubated in 1 ml of 1N KOH at 37° C. overnight. On the next day, the incubated skin tissue was mixed with 4 ml of 0.6N phosphoric acid-acetone (5:13) mixture and centrifuged at 3000 rpm for 15 minutes, and the supernatant was collected and measured for absorbance at 620 nm. Inhibition (%) of vascular permeability was calculated using the following equation: Inhibition(%)={1−[absorbance of area treated with drug and itching inducer−absorbance of area not treated with itching inducer]/[absorbance of area treated with itching inducer−absorbance of area not treated with itching inducer]}×100

[3] = tested on: RBL-2H3 cell line (rat mast cell line); test: Inhibition of degranulation in IgE-sensitized RBL-2H3 cells; type: cell-based; details: RBL-2H3, lactic acid bacteria 1×10^4 CFU/ml
Procedure: The RBL-2H3 cell line (rat mast cell line, the Korean Cell Line Bank, Cat. No. 22256) was cultured with DMEM (Dulbeccos' modified Eagle's medium, Sigma, 22256) containing 10% FBS (fetal bovine serum) and L-glutamine in a humidified 5% CO2 incubator at 37° C. The cells contained in the culture medium were floated using trypsin-EDTA solution, and the floated cells were isolated, collected and used in the experiment. The collected RBL-2H3 cells were dispensed into a 24-well plate at a density of 5×10^5 cells/well and sensitized by incubation with 0.5 μg/ml of mouse monoclonal IgE for 12 hours. The sensitized cells were washed with 0.5 ml of siraganian buffer (119 mM NaCl, 5 mM KCl, 0.4 mM MgCl2, 25 mM PIPES, 40 mM NaOH, pH 7.2), and then incubated with 0.16 ml of siraganian buffer (supplemented with 5.6 mM glucose, 1 mM CaCl2), 0.1% BSA) at 37° C. for 10 minutes. Next, lactic acid bacteria as a test drug were added to the cell culture to a concentration of 1×10^4 CFU/ml, or 0.04 ml of DSCG (disodium cromoglycate) as a control drug was added to the cell culture, and after 20 minutes, the cells were activated with 0.02 ml of antigen (1 μg/ml DNP-BSA) at 37° C. for 10 minutes. […] Next, the reaction was stopped by addition of 0.2 ml of 0.1M Na2CO3/NaHCO3, and the absorbance at 405 nm was measured by an ELISA analyzer.

SMILES	Inhibition (%) Itching [1] [%]	Inhibition (%) vascular permeability [2] [%]	Inhibition (%) Degranulation ([3]; first experiment) [%]	Degranulation inhibition (%) ([3]; second experiment)
CN1CCCC(n2nc(Cc3ccc(Cl)cc3)c3ccccc3c2=O)CC1 (stereo not drawn) [Azelastine]	65	68	–	–
O=C([O-])c1cc(=O)c2c(OCC(O)COc3cccc4oc(C(=O)[O-])cc(=O)c34)cccc2o1.[Na+].[Na+] [DSCG, disodium cromoglycate]	25	37	62	62
